This is an account of results in PubChem BioAssay AID328 (DTP/NCI, 2004).

In this test the test system is BDF1 mice, P388 leukemia ip, median survival T/C. The experiment in a line: NCI In Vivo Anticancer Drug Screen. Data for tumor model P388 Leukemia (intraperitoneal) in B6D2F1 (BDF1) mice. To be noted: endpoint: median survival time, higher = longer survival. In a few lines: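 Read-out is survival of treated animals expressed relative to the vehicle group, as a T/C ratio.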

The mark [1] stands for this setting: dose: 50.0 mg/kg/injection, schedule: Q04DX003 (ip), vehicle: saline with Tween-80.
The mark [2] stands for this setting: dose: 50.0 mg/kg/injection, schedule: Q04DX003 (ip), vehicle: saline.
[3] abbreviates: dose: 100.0 mg/kg/injection, schedule: Q04DX003 (ip), vehicle: saline with Tween-80.
Setting [4] is: dose: 100.0 mg/kg/injection, schedule: Q04DX003 (ip), vehicle: saline.
Setting [5] is: dose: 6.25 mg/kg/injection, schedule: Q01DX009 (ip), vehicle: saline with Tween-80.
Setting [6] is: dose: 12.5 mg/kg/injection, schedule: Q01DX009 (ip), vehicle: saline with Tween-80.
The mark [7] stands for this setting: dose: 200.0 mg/kg/injection, schedule: Q01DX009 (ip), vehicle: saline with Tween-80.
Where [8] appears, read: dose: 50.0 mg/kg/injection, schedule: Q01DX009 (ip), vehicle: saline with Tween-80.
Setting [9] is: dose: 100.0 mg/kg/injection, schedule: Q01DX009 (ip), vehicle: Klucel (hydroxypropylcellulose) (HPC).
The mark [10] stands for this setting: dose: 200.0 mg/kg/injection, schedule: Q01DX009 (ip), vehicle: Klucel (hydroxypropylcellulose) (HPC).
Where [11] appears, read: dose: 200.0 mg/kg/injection, schedule: Q04DX003 (ip), vehicle: saline.
Setting [12] is: dose: 200.0 mg/kg/injection, schedule: Q04DX003 (ip), vehicle: saline with Tween-80.
Where [13] appears, read: dose: 100.0 mg/kg/injection, schedule: Q01DX009 (ip), vehicle: saline with Tween-80.

“And” between values parts separate entries of the source, which are not always exact repeats. Identical values can stand only once. Inconclusive results and toxic doses are left out.

For `Nc1ncc(-c2ccc(CNc3ccc(C(=O)NC(CC(=O)O)CC(=O)O)cc3)cc2)c(N)n1`, the T/C runs as follows: (dose: 2.0 mg/kg/injection, schedule: Q04DX003 (ip), vehicle: saline) 113 % of control; (dose: 5.0 mg/kg/injection, schedule: Q04DX003 (ip), vehicle: saline) 104 % of control; (dose: 10.0 mg/kg/injection, schedule: Q04DX003 (ip), vehicle: saline) 104 % of control; (dose: 20.0 mg/kg/injection, schedule: Q04DX003 (ip), vehicle: saline) 109 % of control; (dose: 30.0 mg/kg/injection, schedule: Q04DX003 (ip), vehicle: saline) 118 % of control; under setting [1], 157 % of control. The T/C under setting [2] was 177 % of control, the T/C under setting [3] was 242 % of control and the T/C under setting [4] was 213 % of control.
Consider `ON=C1CSSC1`, for which the T/C was 100 % of control (dose: 0.78 mg/kg/injection, schedule: Q01DX009 (ip), vehicle: saline with Tween-80); 106 % of control (dose: 0.78 mg/kg/injection, schedule: Q04DX003 (ip), vehicle: saline with Tween-80); 102 % of control (dose: 1.56 mg/kg/injection, schedule: Q01DX009 (ip), vehicle: saline with Tween-80); 100 % of control (dose: 1.56 mg/kg/injection, schedule: Q04DX003 (ip), vehicle: saline with Tween-80); 109 % of control (dose: 3.12 mg/kg/injection, schedule: Q01DX009 (ip), vehicle: saline with Tween-80); 99 % of control and 104 % of control (dose: 3.12 mg/kg/injection, schedule: Q04DX003 (ip), vehicle: saline with Tween-80). The T/C reads like this: under setting [5], 90 % of control; (dose: 6.25 mg/kg/injection, schedule: Q04DX003 (ip), vehicle: saline with Tween-80) 100 % of control and 104 % of control; under setting [6], 102 % of control; (dose: 12.5 mg/kg/injection, schedule: Q04DX003 (ip), vehicle: saline with Tween-80) 99 % of control and 106 % of control.
As for `CC(C)CCOP(=S)(N1CC1)N1CC1`, the T/C (dose: 400.0 mg/kg/injection, schedule: Q04DX003 (ip), vehicle: saline with Tween-80) was 177 % of control.
For the molecule `CC1C=CCC2C(=O)OC(=O)C12` (centres undefined), the T/C (dose: 25.0 mg/kg/injection, schedule: Q04DX003 (ip), vehicle: saline with Tween-80) is 100 % of control; the T/C under setting [1] was 100 % of control; the T/C under setting [3] was 100 % of control.
Turning to `Cc1n[nH]c2ccc([N+](=O)[O-])cc2c1=O`, the T/C under setting [7] was 87 % of control.
For the molecule `O=C(O)COc1ccc(-c2ccc(Br)cc2)cc1`, the T/C is 90 % of control under setting [8]; 100 % of control under setting [7]; 101 % of control (dose: 400.0 mg/kg/injection, schedule: Q01DX009 (ip), vehicle: saline with Tween-80).
As to `COC(COC(N)=O)C1=C(N2CC2)C(=O)C(C)=C(N2CC2)C1=O` (centres undefined), the T/C is 123 % of control (dose: 0.03 mg/kg/injection, schedule: Q01DX009 (ip), vehicle: saline); 154 % of control (dose: 0.12 mg/kg/injection, schedule: Q01DX009 (ip), vehicle: saline); 190 % of control (dose: 0.25 mg/kg/injection, schedule: Q01DX009 (ip), vehicle: saline); 258 % of control (dose: 0.5 mg/kg/injection, schedule: Q01DX009 (ip), vehicle: saline).
As to `Cc1cc(C)c(S(=O)(=O)ON=C2c3ccccc3-c3ccccc32)c(C)c1`, the T/C runs as follows: (dose: 25.0 mg/kg/injection, schedule: Q01DX001 (ip), vehicle: Klucel (hydroxypropylcellulose) (HPC)) 100 % of control; (dose: 50.0 mg/kg/injection, schedule: Q01DX001 (ip), vehicle: Klucel (hydroxypropylcellulose) (HPC)) 109 % of control; (dose: 100.0 mg/kg/injection, schedule: Q01DX001 (ip), vehicle: Klucel (hydroxypropylcellulose) (HPC)) 113 % of control; under setting [9], 105 % of control; (dose: 200.0 mg/kg/injection, schedule: Q01DX001 (ip), vehicle: Klucel (hydroxypropylcellulose) (HPC)) 95 % of control; under setting [10], 95 % of control. Besides, the T/C was 109 % of control (dose: 400.0 mg/kg/injection, schedule: Q01DX001 (ip), vehicle: Klucel (hydroxypropylcellulose) (HPC)) and 110 % of control (dose: 400.0 mg/kg/injection, schedule: Q01DX009 (ip), vehicle: Klucel (hydroxypropylcellulose) (HPC)).
`COc1cc2c(c(OC)c1OC)-c1ccc(OC)c(=O)cc1[C@@H](N)CC2`: the T/C (dose: 1.25 mg/kg/injection, schedule: Q01DX009 (ip), vehicle: water) is 120 % of control; the T/C (dose: 2.0 mg/kg/injection, schedule: Q01DX010 (ip), vehicle: water) was 160 % of control; the T/C (dose: 5.0 mg/kg/injection, schedule: Q01DX009 (ip), vehicle: water) is 94 % of control; the T/C (dose: 20.0 mg/kg/injection, schedule: Q04DX003 (ip), vehicle: Klucel (hydroxypropylcellulose) (HPC)) was 176 % of control; the T/C (dose: 30.0 mg/kg/injection, schedule: Q04DX003 (ip), vehicle: Klucel (hydroxypropylcellulose) (HPC)) was 98 % of control; the T/C (dose: 45.0 mg/kg/injection, schedule: Q04DX003 (ip), vehicle: Klucel (hydroxypropylcellulose) (HPC)) is 89 % of control.
Regarding `O=S(=O)(O)CCN1CCN(CCO)CC1`, the T/C by setting is: under setting [4], 91 % of control; under setting [11], 108 % of control; (dose: 400.0 mg/kg/injection, schedule: Q04DX003 (ip), vehicle: saline) 95 % of control.
Consider `O=C(NN(c1ccc([N+](=O)[O-])cc1)c1ccc([N+](=O)[O-])cc1)c1ccccc1`, for which the T/C runs as follows: (dose: 50.0 mg/kg/injection, schedule: Q01DX009 (ip), vehicle: Klucel (hydroxypropylcellulose) (HPC)) 100 % of control; under setting [9], 105 % of control; under setting [10], 105 % of control.
Consider `CC(=O)OCC(=O)[C@@]1(O)CC[C@H]2[C@@H]3CCC4=CC(=O)CC[C@]4(C)[C@@]3(Cl)[C@@H](O)C[C@@]21C`, for which the T/C was 109 % of control (dose: 18.7 mg/kg/injection, schedule: Q04DX003 (ip), vehicle: saline with Tween-80); 109 % of control (dose: 37.5 mg/kg/injection, schedule: Q04DX003 (ip), vehicle: saline with Tween-80); 113 % of control (dose: 66.0 mg/kg/injection, schedule: Q04DX003 (ip), vehicle: saline with Tween-80); 118 % of control (dose: 75.0 mg/kg/injection, schedule: Q04DX003 (ip), vehicle: saline with Tween-80); 118 % of control (dose: 150.0 mg/kg/injection, schedule: Q04DX003 (ip), vehicle: saline with Tween-80).
With `CN(C)c1ccc(C=O)cc1[N+](=O)[O-]`, the T/C (dose: 50.0 mg/kg/injection, schedule: Q04DX003 (ip), vehicle: Klucel (hydroxypropylcellulose) (HPC)) was 113 % of control; the T/C (dose: 100.0 mg/kg/injection, schedule: Q04DX003 (ip), vehicle: Klucel (hydroxypropylcellulose) (HPC)) was 113 % of control; the T/C (dose: 200.0 mg/kg/injection, schedule: Q04DX003 (ip), vehicle: Klucel (hydroxypropylcellulose) (HPC)) was 104 % of control.
Turning to `O=C(O)c1ccc(C(=O)O)c([N+](=O)[O-])c1`, the T/C is, setting by setting: under setting [2], 100 % of control; under setting [4], 100 % of control; under setting [11], 100 % of control.
As for `CCCCc1c2c(nn1C(C)=O)C(=O)C=C(Nc1ccccc1)C2=O`, the T/C was 100 % of control under setting [3] and 99 % of control under setting [12].
As for `O=[N+]([O-])c1ccc(N/N=C/C(Br)(Br)Br)c([N+](=O)[O-])c1`, the T/C runs as follows: under setting [8], 111 % of control; under setting [13], 104 % of control; under setting [7], 103 % of control.
On to `NC(=O)c1ncn[nH]1`, for which the T/C by setting is: under setting [8], 95 % of control; under setting [1], 104 % of control; under setting [13], 87 % of control; under setting [3], 100 % of control; under setting [7], 104 % of control; under setting [12], 100 % of control.
`CSc1nc(C)cc(=O)[nH]1`: the T/C was 105 % of control under setting [5]; 103 % of control under setting [6]; 115 % of control (dose: 25.0 mg/kg/injection, schedule: Q01DX009 (ip), vehicle: saline with Tween-80); 108 % of control under setting [8].
On to `O=C1C(N2CC2)=C(N2CCCC(O)C2)C(=O)C(N2CC2)=C1N1CCCC(O)C1` (centres undefined), for which the T/C is, setting by setting: (dose: 1.0 mg/kg/injection, schedule: Q01DX009 (ip), vehicle: saline) 195 % of control; (dose: 2.0 mg/kg/injection, schedule: Q01DX009 (ip), vehicle: saline) 99 % of control.
